Measurements published in patent US8618077B2, “Compositions and methods for treating fragile X premutation RVGG repeats-mediated toxicity” (Emory University, priority 2011, dated 2013).

Experiments:
[1] = test system: flies expressing fragile X premutation rCGG repeats (elav-GAL4/+; UAS-CGG90-EGFP/+); assay: Chemical screen / viability assay: rescue of lethality caused by neuronal expression of fragile X premutation rCGG90 repeats; format: in vivo, Drosophila; details: for recovery of dFmr1 CGG90 mutant flies: 40 microM of compound in the food, 0% on food alone
Description: In particular, embodiments of the present disclosure include methods of screening compounds using a drosophila (fruit fly) based compound screen to identify drug candidates for the treatment of the fragile X-associated tremor/ataxia syndrome or other neurodegenerative disorders. […] A fly line of UAS-CGG90-EGFP transgene balanced with Cyo balancer carrying hs-hid transgene was generated. Upon heat shock, the expression of hid was activated, which led to cell death and lethality in the CGG90 dFmr1 premutation fly embryos.
The mutant embryos were placed into an appropriate container (e.g., a 96-well container) containing a food with or without a compound from a library of drugs candidates. 5 μM and 40 μM of individual compounds from a library of 2,000 FDA approved drugs and natural products (The Spectrum Collection™) were screened. Vials were then kept at 25° C. for 10 to 15 days to score for viability. The efficacy of the drug candidate was determined by scoring the number of pupae formation or the emergence of adult flies after a certain time frame. Embodiments of the present disclosure provide a screen for compounds that directly and indirectly regulate dFmr1 rCGG repeat mediated toxicity and rescue mutant flies from heat shock induced lethality. Additional details regarding the active compositions and disorders are described in the Examples below.
A Drosophila disease model of FXTAS and provided experimental evidence that fragile X premutation rCGG repeats alone are sufficient to cause neurodegeneration in a repeat-dosage manner. See Jin et al., Neuron, 2003, 39:739-747. […] Lethality occurs primarily during embryonic development before larval formation. Taking advantage of this lethality, a high-throughput strategy was designed to screen chemical libraries for small molecules relevant to FXTAS. the UAS-CGG90-EGFP transgene was balanced with a chromosome carrying a curly wing (Cyo) marker recombined with a heat shock-inducible apoptotic hid (hs-hid) transgene (w1118, UAS-CGG90-EGFP/TM2 Cyo:hs-hid). Next, the viability of adult progeny was tested using the Drosophila GAL4/UAS system. crosses of UAS-CGG90-EGFP/TM2 Cyo:hs-hid were performed with homozygous pan-neuronal elav-Gal4 driver. There was an absence of heterozygous non-Cyo adult progeny (elav-GAL4/+; UAS-CGG90-EGFP/+), which confirmed that rCGG90 repeat expression in neurons leads to lethality. The only living progenies would carry elav-GAL4/+; +/TM2 Cyo:hs-hid. Furthermore, upon heat shock, the progenies carrying elav-GAL4/+; +/TM2 Cyo:hs-hid also died, because the expression of hid leads to cell death and lethality at embryonic stages that are otherwise viable.
Since the rescue of the lethality was an easily scored phenotype, one is able to use this assay to conduct a chemical screen to identify the small molecules that can improve/restore the viability of the flies expressing fragile X premutation rCGG repeats. As depicted in schematic representation (FIG. 1A), crosses between elav-GAL4 and UAS-CGG90-EGFP/TM2 Cyo:hs-hid were raised as well as control flies into food supplemented with 40 μm of individual unique compounds from a library of 2000 US Food and Drug Administration (FDA)-approved drugs and natural products (The Spectrum Collection, MicroSource Discovery Systems, Inc.). […]

dFmr1 CGG90 mutant flies = assay: Locomotion assay (Drosophila Activity Monitor) in flies expressing rCGG90 repeats (UAS-CGG90-EGFP/nervana-GAL4); format: in vivo; details: for percentage of normal locomotion activity in dFmr1 CGG90 mutant flies: compound-treated flies, 50% without treatment; for effect on locomotion deficits caused by fragile X premutation rCGG repeats (in words): flies fed food containing the compound, mean locomotor activity over 7 days
Method: FIG. 2A illustrates the identification of small molecules that can ameliorate the locomotion deficits caused by fragile X premutation rCGG repeats. Nervana-GAL4 driver and UAS-CGG90-EGFP/Cyo were crossed to produce progeny embryos on food supplemented with or without selected compounds as indicated. Adult progeny of genotype UAS-CGG90-EGFP/nervana were selected and 32 female virgins 48 h old were subsequently monitored for locomotor activity continuously for several weeks. The locomotion of 32 flies that were fed with fly food containing the compound each time were simultaneously monitored.
To further validate these compounds, a secondary behavioral assay was developed. In this assay, UAS-CGG90-EGFP transgenic flies were crossed with nervana-GAL4, which could drive the expression of fragile X rCGG repeats in CNS, albeit weakly, allowing us to analyze adult flies for locomotion deficits. The expression of rCGG repeats leads to locomotion defects (FIG. 2A). […] The progeny flies (UAS-CGG90-EGFP/nervana-GAL4) were collected to monitor locomotion. To continuously monitor the locomotion for a given fly, a Drosophila Activity Monitor (DAM) system was established for this purpose. See Pfeiffenberger et al., Locomotor activity level monitoring using the Drosophila Activity Monitoring (DAM) System. Cold Spring Harb. Protoc. 2010.
For each individual compound, the locomotion of 32 flies were simultaneously monitored that were fed with fly food containing the compound each time. The data were collected and analyzed for locomotor activity (FIG. 2B). Each drug treatment was repeated at least three times.

[2] = test system: release of arachidonic acid; details: cited from earlier work

Row | SMILES | recovery of dFmr1 CGG90 mutant flies [1] [%] | percentage of normal locomotion activity in dFmr1 CGG90 mutant flies (dFmr1 CGG90 mutant flies) [%] | effect on locomotion deficits caused by fragile X premutation rCGG repeats (in words) (dFmr1 CGG90 mutant flies) | suppression of lethality caused by fragile X premutation rCGG repeats (in words) ([1]; 40 μm compound in food, heat shock at day 2, scored after 10-15 days) | effect on locomotion deficits caused by fragile X premutation rCGG repeats (in words) (dFmr1 CGG90 mutant flies; listed as Fluocinolone acetonide) | effect on locomotion deficits caused by fragile X premutation rCGG repeats (in words) (dFmr1 CGG90 mutant flies; listed as fluocinolone acetonide) | release of arachidonic acid [2] | effect on locomotion deficits caused by fragile X premutation rCGG repeats (in words) (dFmr1 CGG90 mutant flies; listed as xylazine)
1 | COc1ccc(C(=O)/C=C/c2ccccc2)cc1 [4′-methoxy chalcone] | 3 | 75 | significant suppression of the locomotion activity deficit | – | – | – | – | –
2 | C[C@@H]1C[C@H]2[C@@H]3CCC4=CC(=O)C=C[C@]4(C)[C@@]3(F)[C@@H](O)C[C@]2(C)[C@@]1(O)C(=O)CO [dexamethasone] | 5 | 90 | – | – | – | – | – | –
3 | CC1(C)O[C@@H]2C[C@H]3[C@@H]4C[C@H](F)C5=CC(=O)C=C[C@]5(C)[C@@]4(F)[C@@H](O)C[C@]3(C)[C@]2(C(=O)CO)O1 [fluocilone acetonide] | 7.5 | 99 | significant suppression of the locomotion activity deficit | suppress both lethality and locomotion deficits | significantly ameliorate the locomotion defects | suppress both lethality and locomotion deficits | – | –
4 | CCN(CC)CCCC(C)Nc1c2ccc(Cl)cc2nc2ccc(OC)cc12 (stereo not shown) [quinacrine] | – | – | – | – | – | – | blocked | –
5 | Cc1cccc(C)c1N=C1NCCCS1 [xylaxine] | 5 | 80 | significant suppression of the locomotion activity deficit | – | – | – | – | significantly ameliorate the locomotion defects
